Patent publication US4782151A, “Polyprenyl compound and pharmaceutical use” (Eisai Co., Ltd., priority 1984, dated 1988)

What was measured:
gastric acid secretion = assay: Gastric acid secretion inhibiting effect (pylorus-ligated rats, method of Shay); type: in vivo, Wistar strain male rats; conditions: for inhibition in vivo at 100 mg/kg: Rattus norvegicus, 100 mg/μg (so in the source), to the duodenum during pyloric ligation, 4 hours, vs control group
Method: According to the method of H. Shay et a. described in Gastroenterology, Vol. 5, p. 43 (1945), Wistar strain male rats each weighing about 200 g were not given any diet for 24 hours, and their pyloric segments were ligated under etherization. After four hours, the stomachs were excised under deep etherization, and the contents of the stomachs were collected. After determination of the amount, the gastric juice was centrifuged at 3,000 rpm for 10 minutes and the supernatant liquid was titrated by neutralization (at a pH 7.0) with N/50-NaOH by means of an automatic titrator (TTA 81, Radiometer, Copenhagen) to determine the acidity. The amount of the acid which had been secreted for four hours was calculated from the volume of the gastric juice and the acidity. The results are represented in terms of % inhibition with respect to the control group. Each of the compounds tested was emulsified in a 25% decaglyn mixture (polyglycerin fatty acid ester), and 100 mg/μg (dose 0.2 ml/100 g weight) was administered to the duodenum during the ligation of the pyloric segment. In the control group, only the solvent was administered.

Pyloric Ligation Ulcer = assay: Effect on Pyloric Ligation Ulcer; type: in vivo, Wistar strain male rats; set-up: key to Grade Index G.I. mean ± S.E.: ulcer grade 0–V by eye; larger = more ulcers, V = perforation
Method: According to the method of Shay et al. described in Gastroenterology, Vol 5, p. 43 (1945), Wistar strain male rats each weighing about 300 g were not given any diet for 48 hours, and then their pyloric segments were ligated. After 15 hours, the abdomen of each of the rats was opened, and the stomach was excised. The stomach was cut open along the side of the greater curvature, and the ulcers developed on the fore-stomach were classified and evaluated with the naked eye into five stages. The larger ulcer index means the more ulcers and index V refers to an example of perforation. The medicines were evaluated by determining their mean ±standard error. […] Cimetidine and propantheline were selected as control medicines.
(Note) In Table 2, Grade Index was evaluated on the basis of the size,
number, and severity of ulcers.

Ethanol-Induced Ulcer = assay: Effect on Ethanol-Induced Ulcer; type: in vivo, Wistar male rats
Method: According to the method of Robert et al., 1 ml/rat of absolute ethanol was administered orally to each of Wistar male rats. After one hour, the stomach of each rat was excised, 10 ml of physiologically saline solution was injected into the stomach, and the stomach was soaked in 5% neutral formalin. Each stomach was cut open along the side of the greater curvature, and the ulcers developed on the glandular stomach were measured for their lengths and the total sum of the lengths was defined as ulcer index.
Compound B, i.e. N-(2,6,10,14-tetramethyl-18-oxo-2,6,10,14-nonadecatetraenoyl)diethylamine,and compound F, i.e. N-(2,6,10,14-tetramethyl-18-oxo-2,6,10,14-nonadecatetraenoyl)pyrrolidine, were selected as test compounds and emulsified in 2.5% decaglyn mixture, and 12.5 to 100 mg/kg (dose volume 0.2 ml/100 g-weight) was administered orally 30 minutes before administration of ethanol.

in vivo = conditions: mouse, po
[1] = 100 mg/kg, 15 hours after pylorus ligation
[2] = 100 mg/kg, N 4 (Compound B), N 10 (Cimetidine)
[3] = 12.5 mg/kg orally 30 minutes before ethanol
[4] = 25 mg/kg orally 30 minutes before ethanol
[5] = 50 mg/kg orally 30 minutes before ethanol
[6] = 100 mg/kg orally 30 minutes before ethanol

CC(=O)CCC=C(C)CCC=C(C)CCC=C(C)CCC=C(C)CNC(C)=O [Compound J]
inhibition in vivo at 100 mg/kg (gastric acid secretion): 53%

CC(=O)CCC=C(C)CCC=C(C)CCC=C(C)CCC=C(C)C(=O)N1CC=CC1 [Compound I]
inhibition in vivo at 100 mg/kg (gastric acid secretion): 43.9%

CCOC(=O)C=C(C)CCC=C(C)CCC=C(C)CCC=C(C)C(=O)N(CC)CC [Compound M]
inhibition in vivo at 100 mg/kg (gastric acid secretion): 80.6%

CCN(CC)C(=O)C(C)=CCCC(C)=CCCC(C)=CCCC(C)=CCCC(C)=O [Compound B, N-(2,6,10,14-tetramethyl-18-oxo-2,6,10,14-nonadecatetraenoyl)diethylamine]
inhibition in vivo at 100 mg/kg (gastric acid secretion): 83.5% | action of inhibiting acid secretion (in words) (gastric acid secretion; rat, in vivo): powerful action of inhibiting acid secretion | Grade Index 0 (number of animals) (Pyloric Ligation Ulcer; 25 mg/kg, N 6): 2 | Grade Index I (number of animals) (Pyloric Ligation Ulcer; 25 mg/kg, N 6): 1 | Grade Index II (number of animals) (Pyloric Ligation Ulcer; 25 mg/kg, N 6): 2 | Grade Index III (number of animals) (Pyloric Ligation Ulcer; 25 mg/kg, N 6): 0 | Grade Index IV (number of animals) (Pyloric Ligation Ulcer; 25 mg/kg, N 6): 0 | Grade Index V (number of animals; perforation) (Pyloric Ligation Ulcer; 25 mg/kg, N 6): 1 | Grade Index G.I. mean ± S.E. (Pyloric Ligation Ulcer; 25 mg/kg, to the duodenum during pylorus ligation, 15 hours): 1.7 ± 0.7 | Grade Index 0 (number of animals) (Pyloric Ligation Ulcer; 50 mg/kg, N 6): 2 | Grade Index I (number of animals) (Pyloric Ligation Ulcer; 50 mg/kg, N 6): 3 | Grade Index II (number of animals) (Pyloric Ligation Ulcer; 50 mg/kg, N 6): 0 | Grade Index III (number of animals) (Pyloric Ligation Ulcer; 50 mg/kg, N 6): 0 | Grade Index IV (number of animals) (Pyloric Ligation Ulcer; 50 mg/kg, N 6): 0 | Grade Index V (number of animals; perforation) (Pyloric Ligation Ulcer; 50 mg/kg, N 6): 1 | Grade Index G.I. mean ± S.E. (Pyloric Ligation Ulcer; 50 mg/kg, to the duodenum during pylorus ligation, 15 hours): 1.3 ± 0.8 | Grade Index G.I. mean ± S.E. (Pyloric Ligation Ulcer; [1]): 0.0 ± 0.0 | Grade Index 0 (number of animals) (Pyloric Ligation Ulcer; [2]): 4 | Grade Index I (number of animals) (Pyloric Ligation Ulcer; [2]): 0 | Grade Index II (number of animals) (Pyloric Ligation Ulcer; [2]): 0 | Grade Index III (number of animals) (Pyloric Ligation Ulcer; [2]): 0 | Grade Index IV (number of animals) (Pyloric Ligation Ulcer; [2]): 0 | Grade Index V (number of animals; perforation) (Pyloric Ligation Ulcer; [2]): 0 | Grade Index 0 (number of animals) (Pyloric Ligation Ulcer; 200 mg/kg, N 4): 4 | Grade Index I (number of animals) (Pyloric Ligation Ulcer; 200 mg/kg, N 4): 0 | Grade Index II (number of animals) (Pyloric Ligation Ulcer; 200 mg/kg, N 4): 0 | Grade Index III (number of animals) (Pyloric Ligation Ulcer; 200 mg/kg, N 4): 0 | Grade Index IV (number of animals) (Pyloric Ligation Ulcer; 200 mg/kg, N 4): 0 | Grade Index V (number of animals; perforation) (Pyloric Ligation Ulcer; 200 mg/kg, N 4): 0 | Grade Index G.I. mean ± S.E. (Pyloric Ligation Ulcer; 200 mg/kg, to the duodenum during pylorus ligation, 15 hours): 0.0 ± 0.0 | Inhibition (%) of ulcer index (Ethanol-Induced Ulcer; [3]): 82.6% | Ulcer Index Mean ± S.E. (mm) (Ethanol-Induced Ulcer; [3]): 10.1 ± 5.9 mm | Inhibition (%) of ulcer index (Ethanol-Induced Ulcer; [4]): 97.6% | Ulcer Index Mean ± S.E. (mm) (Ethanol-Induced Ulcer; [4]): 1.4 ± 1.0 mm | Inhibition (%) of ulcer index (Ethanol-Induced Ulcer; [5]): 90.4% | Ulcer Index Mean ± S.E. (mm) (Ethanol-Induced Ulcer; [5]): 5.6 ± 2.9 mm | Inhibition (%) of ulcer index (Ethanol-Induced Ulcer; [6]): 97.8% | Ulcer Index Mean ± S.E. (mm) (Ethanol-Induced Ulcer; [6]): 1.3 ± 1.0 mm

CC(=O)CCC=C(C)CCC=C(C)CCC=C(C)CCC=C(C)C(=O)N(C)C [Compound D]
inhibition in vivo at 100 mg/kg (gastric acid secretion): 52.6% | LD50 (in vivo): > 5000 mg/kg

CC(=O)CCC=C(C)CCC=C(C)CCC=C(C)CCC=C(C)C(=O)N(CCO)CCO [Compound E]
inhibition in vivo at 100 mg/kg (gastric acid secretion): 52.2%

CC(C)[N+](C)(CCOC(=O)C1c2ccccc2Oc2ccccc21)C(C)C [Propantheline bromide, reference compound]
Grade Index 0 (number of animals) (Pyloric Ligation Ulcer; 30 mg/kg, N 10): 8 | Grade Index I (number of animals) (Pyloric Ligation Ulcer; 30 mg/kg, N 10): 2 | Grade Index II (number of animals) (Pyloric Ligation Ulcer; 30 mg/kg, N 10): 0 | Grade Index III (number of animals) (Pyloric Ligation Ulcer; 30 mg/kg, N 10): 0 | Grade Index IV (number of animals) (Pyloric Ligation Ulcer; 30 mg/kg, N 10): 0 | Grade Index V (number of animals; perforation) (Pyloric Ligation Ulcer; 30 mg/kg, N 10): 0 | Grade Index G.I. mean ± S.E. (Pyloric Ligation Ulcer; 30 mg/kg, 15 hours after pylorus ligation): 0.2 ± 0.1

CC(=O)CCC=C(C)CCC=C(C)CCC=C(C)CCC=C(C)C(=O)n1ccnc1 [Compound H]
inhibition in vivo at 100 mg/kg (gastric acid secretion): 49.1%

CCN(CC(C)=CCCC(C)=CCCC(C)=CCCC(C)=CCCC(C)=O)C(C)=O [Compound L]
inhibition in vivo at 100 mg/kg (gastric acid secretion): 62.6%

CCC(=O)NCC(C)=CCCC(C)=CCCC(C)=CCCC(C)=CCCC(C)=O [Compound K]
inhibition in vivo at 100 mg/kg (gastric acid secretion): 50.2%

CC(=O)CCC=C(C)CCC=C(C)CCC=C(C)CCC=C(C)C(=O)N1CCOCC1 [Compound A]
inhibition in vivo at 100 mg/kg (gastric acid secretion): 52.9%

CCNC(=O)C(C)=CCCC(C)=CCCC(C)=CCCC(C)=CCCC(C)=O [Compound C]
inhibition in vivo at 100 mg/kg (gastric acid secretion): 63.2%

CC(=O)CCC=C(C)CCC=C(C)CCC=C(C)CCC=C(C)C(=O)N1CCCC1 [Compound F, N-(2,6,10,14-tetramethyl-18-oxo-2,6,10,14-nonadecatetraenoyl)pyrrolidine]
inhibition in vivo at 100 mg/kg (gastric acid secretion): 76.1% | Inhibition (%) of ulcer index (Ethanol-Induced Ulcer; [3]): 63.2% | Ulcer Index Mean ± S.E. (mm) (Ethanol-Induced Ulcer; [3]): 21.4 ± 8.2 mm | Inhibition (%) of ulcer index (Ethanol-Induced Ulcer; [4]): 94.8% | Ulcer Index Mean ± S.E. (mm) (Ethanol-Induced Ulcer; [4]): 3.0 ± 1.9 mm | Inhibition (%) of ulcer index (Ethanol-Induced Ulcer; [5]): 85.7% | Ulcer Index Mean ± S.E. (mm) (Ethanol-Induced Ulcer; [5]): 8.3 ± 3.4 mm | Inhibition (%) of ulcer index (Ethanol-Induced Ulcer; [6]): 97.1% | Ulcer Index Mean ± S.E. (mm) (Ethanol-Induced Ulcer; [6]): 1.7 ± 0.9 mm | LD50 (in vivo): > 5000 mg/kg

CN/C(=N/CCSCc1nc[nH]c1C)NC#N [Cimetidine, reference compound]
Grade Index G.I. mean ± S.E. (Pyloric Ligation Ulcer; [1]): 3.3 ± 0.7 | Grade Index 0 (number of animals) (Pyloric Ligation Ulcer; [2]): 2 | Grade Index I (number of animals) (Pyloric Ligation Ulcer; [2]): 0 | Grade Index II (number of animals) (Pyloric Ligation Ulcer; [2]): 1 | Grade Index III (number of animals) (Pyloric Ligation Ulcer; [2]): 2 | Grade Index IV (number of animals) (Pyloric Ligation Ulcer; [2]): 0 | Grade Index V (number of animals; perforation) (Pyloric Ligation Ulcer; [2]): 5
